Some results are limits rather than exact numbers.

The target in the test is T1, USP7 (Homo sapiens, UniProt Q93009).
T1 construct: The USP7 construct was PCR amplified and cloned into a pFLAG-CMV-6a vector (Sigma-Aldrich) with an N-terminal FLAG tag; made in house; host or cells: HEK293T
T1 sequence (Q93009 whole entry): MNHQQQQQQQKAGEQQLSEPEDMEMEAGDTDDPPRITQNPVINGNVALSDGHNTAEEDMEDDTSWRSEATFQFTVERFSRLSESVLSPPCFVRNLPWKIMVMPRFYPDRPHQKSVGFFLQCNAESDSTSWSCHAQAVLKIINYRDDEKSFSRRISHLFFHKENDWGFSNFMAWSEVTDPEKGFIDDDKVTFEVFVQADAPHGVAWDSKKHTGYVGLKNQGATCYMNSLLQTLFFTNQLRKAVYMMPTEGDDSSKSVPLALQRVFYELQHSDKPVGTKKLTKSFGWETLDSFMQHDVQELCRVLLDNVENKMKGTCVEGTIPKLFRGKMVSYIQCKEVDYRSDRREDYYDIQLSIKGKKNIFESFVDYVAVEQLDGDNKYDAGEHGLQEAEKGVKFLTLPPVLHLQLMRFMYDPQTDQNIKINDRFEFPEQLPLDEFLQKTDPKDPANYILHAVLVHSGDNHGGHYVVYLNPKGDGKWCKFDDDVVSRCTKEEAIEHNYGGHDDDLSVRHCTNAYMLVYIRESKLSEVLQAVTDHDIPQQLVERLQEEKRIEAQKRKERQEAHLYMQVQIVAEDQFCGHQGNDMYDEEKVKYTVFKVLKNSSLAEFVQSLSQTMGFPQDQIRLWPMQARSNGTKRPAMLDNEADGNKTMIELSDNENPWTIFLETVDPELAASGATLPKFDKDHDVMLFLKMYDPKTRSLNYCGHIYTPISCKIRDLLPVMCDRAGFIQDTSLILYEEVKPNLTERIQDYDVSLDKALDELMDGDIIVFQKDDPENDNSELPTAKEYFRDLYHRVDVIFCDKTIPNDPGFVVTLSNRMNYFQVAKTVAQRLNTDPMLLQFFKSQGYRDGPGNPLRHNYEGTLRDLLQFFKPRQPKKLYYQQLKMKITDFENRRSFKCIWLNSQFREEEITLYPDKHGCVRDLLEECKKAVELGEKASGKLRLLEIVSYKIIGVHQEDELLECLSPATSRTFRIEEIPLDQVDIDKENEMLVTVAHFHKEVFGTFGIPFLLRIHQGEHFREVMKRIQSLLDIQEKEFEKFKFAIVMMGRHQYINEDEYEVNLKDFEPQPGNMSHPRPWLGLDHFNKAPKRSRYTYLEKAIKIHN
Nature of the test: USP7 biochemical IC50 assay (fluorescence polarisation, TAMRA labelled peptide linked to ubiquitin via an iso-peptide bond). The conditions noted are these: 30 min pre-incubation of enzyme and compound, read after 2 hr incubation at room temperature, read-out: IC50 range. In outline: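 Fluorescence polarisation at 540 nm excitation/590 nm emission, read immediately and after 2 hr at room temperature, following addition of 50 nM TAMRA-labelled iso-peptide ubiquitin substrate.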
A general note: In fluorescence polarisation assays a small probe gives low polarisation when free and higher when bound to something large.
One may read the IC50 as the point on the concentration scale where inhibition reaches its midpoint. As for `CC(=O)N1CCCC(C(=O)Nc2cc3c(c(-c4ccccc4)c2)CN(C#N)C3)C1` (centres unmarked) [Example 45, 1-acetyl-N-(2-cyano-7-phenylisoindolin-5-yl)piperidine-3-carboxamide], the IC50 was in the range of 1 to 10 µM.

As for `N#Cc1cc(F)c(-c2cccc3c2CN(C#N)C3)c(C(N)=O)c1` [Example 301, 5-cyano-2-(2-cyanoisoindolin-4-yl)-3-fluorobenzamide], the IC50 fell in the range of 1 to 10 µM.

As for `CN1CCN(C(=O)Nc2cc3c(c(-c4ccccc4)c2)CN(C#N)C3)CC1` [Example 60, N-(2-cyano-7-phenylisoindolin-5-yl)-4-methylpiperazine-1-carboxamide], the IC50 is less than 1 µM.

`N#CN1Cc2nc(NCCCn3ccnc3)nc(-c3ccccc3)c2C1` [Example 122, 2-((3-(1H-imidazol-1-yl)propyl)amino)-4-phenyl-5,7-dihydro-6H-pyrrolo[3,4-d]pyrimidine-6-carbonitrile]: the IC50 fell in the range of 1 to 10 µM.

`CS(=O)(=O)Nc1cc2c(c(-c3ccc(C#N)cc3C#N)c1)CN(C#N)C2` [Example 243, N-(2-cyano-7-(2,4-dicyanophenyl)isoindolin-5-yl)methanesulfonamide]: the IC50 lay in the range of 1 to 10 µM.

As for `N#CN1Cc2cccc(-c3ccccc3C(=O)N3CCNCC3)c2C1` [Example 78, 4-(2-(piperazine-1-carbonyl)phenyl)isoindoline-2-carbonitrile], the IC50 fell in the range of 1 to 10 µM.

As for `N#Cc1ccc(-c2cc(NCC3CCOCC3)cc3c2CN(C#N)C3)c(C(N)=O)c1` [Example 281, 5-Cyano-2-(2-cyano-6-(((tetrahydro-2H-pyran-4-yl)methyl)amino)isoindolin-4-yl)benzamide], the IC50 was in the range of 1 to 10 µM.

Take `N#CN1Cc2cccc(NC(=O)c3ccc(=O)n(Cc4ccccc4)c3)c2C1` [Example 87, 1-benzyl-N-(2-cyanoisoindolin-4-yl)-6-oxo-1,6-dihydropyridine-3-carboxamide]: the IC50 lay in the range of 1 to 10 µM.

As to `Cc1nc(-c2cc3c(c(-c4ccccc4)c2)CN(C#N)C3)no1` [Example 20, 6-(5-methyl-1,2,4-oxadiazol-3-yl)-4-phenylisoindoline-2-carbonitrile], the IC50 is 1 to 10 µM.

For `N#Cc1ccc(-c2cc(NCCO)cc3c2CN(C#N)C3)cc1` [Example 271, 4-(4-cyanophenyl)-6-((2-hydroxyethyl)amino)isoindoline-2-carbonitrile], the IC50 fell in the range of 1 to 10 µM.

As for `Cc1cc(C#N)ccc1-c1cccc2c1CN(C#N)C2` [Example 66, 4-(4-cyano-2-methylphenyl)isoindoline-2-carbonitrile], the IC50 fell in the range of 1 to 10 µM.

As to `COc1cccc(-c2cccc3c2CN(C#N)C3)c1C#N` [Example 170, 4-(2-cyano-3-methoxyphenyl)isoindoline-2-carbonitrile], the half-maximal inhibitory concentration (IC50) fell in the range of 1 to 10 µM.

Turning to `CN(C)S(=O)(=O)c1ccccc1-c1cccc2c1CN(C#N)C2` [Example 174, 2-(2-cyanoisoindolin-4-yl)-N,N-dimethylbenzenesulfonamide], the IC50 was in the range of 1 to 10 µM.

With `N#CN1Cc2nc(NCC3CCOCC3)nc(-c3ccccc3)c2C1` [Example 111, 4-phenyl-2-(((tetrahydro-2H-pyran-4-yl)methyl)amino)-5,7-dihydro-6H-pyrrolo[3,4-d]pyrimidine-6-carbonitrile], the IC50 is 1 to 10 µM.

As to `CN(CCO)c1nc2c(c(-c3ccccc3)n1)CN(C#N)C2` [Example 190, 2-((2-hydroxyethyl)(methyl)amino)-4-phenyl-5,7-dihydro-6H-pyrrolo[3,4-d]pyrimidine-6-carbonitrile], the IC50 lay in the range of 1 to 10 µM.

Regarding `COc1cccc(-c2cc(NC(=O)[C@@H]3CCCN(C)C3)cc3c2CN(C#N)C3)c1` [Example 31, (R)-N-(2-cyano-7-(3-methoxyphenyl)isoindolin-5-yl)-1-methylpiperidine-3-carboxamide], the IC50 is 1 to 10 µM.

As to `CS(=O)(=O)c1ccccc1-c1cccc2c1CN(C#N)C2` [Example 162, 4-(2-(methylsulfonyl)phenyl)isoindoline-2-carbonitrile], the IC50 lay within 1 to 10 µM.

For `Cc1[nH]ncc1-c1nc2c(c(N3CCc4cccnc4C3)n1)CN(C#N)C2` [Example 147, 4-(5,8-dihydro-1,7-naphthyridin-7(6H)-yl)-2-(5-methyl-1H-pyrazol-4-yl)-5,7-dihydro-6H-pyrrolo[3,4-d]pyrimidine-6-carbonitrile], the IC50 lay in the range of 1 to 10 µM.

For the molecule `CS(=O)(=O)Cc1cc2c(c(-c3ccccc3)c1)CN(C#N)C2` [Example 253, 6-((methylsulfonyl)methyl)-4-phenylisoindoline-2-carbonitrile], the IC50 was in the range of 1 to 10 µM.

Consider `CS(=O)(=O)Cc1cc2c(c(-c3ccc(C#N)cc3)c1)CN(C#N)C2` [Example 216, 4-(4-cyanophenyl)-6-((methylsulfonyl)methyl)isoindoline-2-carbonitrile], for which the IC50 lay in the range of 1 to 10 µM.

Take `COC(=O)c1cc2c(c(-c3ccccc3)c1)CN(C#N)C2` [Example 98, methyl 2-cyano-7-phenylisoindoline-5-carboxylate]: the IC50 lay within 1 to 10 µM.

Consider `Cc1[nH]ncc1-c1nc2c(c(N3CCCC3)n1)CN(C#N)C2` [Example 134, 2-(5-methyl-1H-pyrazol-4-yl)-4-(pyrrolidin-1-yl)-5,7-dihydro-6H-pyrrolo[3,4-d]pyrimidine-6-carbonitrile], for which the IC50 lay within 10 to 30 µM.

For `CNc1cc2c(c(-c3ccc(C#N)cc3)c1)CN(C#N)C2` [Example 269, 4-(4-cyanophenyl)-6-(methylamino)isoindoline-2-carbonitrile], the IC50 was in the range of 1 to 10 µM.

As to `CN(C)C(=O)CCC(=O)Nc1cc2c(c(-c3ccccc3)c1)CN(C#N)C2` [Example 46, N1-(2-cyano-7-phenylisoindolin-5-yl)-N4,N4-dimethylsuccinamide], the IC50 was 1 to 10 µM.

Take `CNC(=O)c1cc2c(c(-c3ccc(C#N)cc3)c1)CN(C#N)C2` [Example 237, 2-cyano-7-(4-cyanophenyl)-N-methylisoindoline-5-carboxamide]: the IC50 was in the range of 1 to 10 µM.

On to `N#CN1Cc2cccc(NC(=O)c3cccc(NC(=O)c4ccccc4)c3)c2C1` [Example 90, 3-benzamido-N-(2-cyanoisoindolin-4-yl)benzamide], for which the IC50 was 1 to 10 µM.

`N#CN1Cc2cc(NC(=O)C3CN(Cc4ccccc4)CCO3)cc(-c3ccccc3)c2C1` (centres unmarked) [Example 40, 4-benzyl-N-(2-cyano-7-phenylisoindolin-5-yl)morpholine-2-carboxamide]: the IC50 lay within 1 to 10 µM.

Take `N#Cc1ccc(-c2cc(NC3CCOCC3)cc3c2CN(C#N)C3)cc1` [Example 274, 4-(4-cyanophenyl)-6-((tetrahydro-2H-pyran-4-yl)amino)isoindoline-2-carbonitrile]: the IC50 fell in the range of 1 to 10 µM.

Take `CNC(=O)c1cccc(-c2cc(NC(=O)[C@@H]3CCCN(C)C3)cc3c2CN(C#N)C3)c1` [Example 30]: the half-inhibitory concentration (IC50) is 1 to 10 µM.

On to `CNS(=O)(=O)c1ccccc1-c1cccc2c1CN(C#N)C2` [Example 160, 2-(2-cyanoisoindolin-4-yl)-N-methylbenzenesulfonamide], for which the IC50 lay within 1 to 10 µM.

For `CCNc1nc2c(c(-c3ccccc3C(N)=O)n1)CN(C#N)C2` [Example 123, 2-(6-cyano-2-(ethylamino)-6,7-dihydro-5H-pyrrolo[3,4-c]pyrimidin-4-yl)benzamide], the IC50 lay in the range of 10 to 30 µM.

As to `CS(=O)(=O)NCc1cc2c(c(-c3ccc(C#N)cc3)c1)CN(C#N)C2` [Example 222, N-((2-cyano-7-(4-cyanophenyl)isoindolin-5-yl)methyl)methanesulfonamide], the IC50 fell in the range of 1 to 10 µM.

As to `COC(C)(O)CNc1cc2c(c(-c3ccc(C#N)cc3)c1)CN(C#N)C2` (centres unmarked) [Example 288, 4-(4-cyanophenyl)-6-((2-hydroxy-2-methoxypropyl)amino)iso-indoline-2-carbonitrile], the IC50 is 1 to 10 µM.

In the case of `N#CN1Cc2nc(NCC3CCOCC3)cc(-c3ccc(F)cc3)c2C1` [Example 246, 4-(4-fluorophenyl)-2-(((tetrahydro-2H-pyran-4-yl)methyl)amino)-5,7-dihydro-6H-pyrrolo[3,4-b]pyridine-6-carbonitrile], the IC50 fell in the range of 1 to 10 µM.

Take `N#Cc1ccc(-c2cc(CNC(=O)C3CCS(=O)(=O)CC3)cc3c2CN(C#N)C3)cc1` [Example 220, N-((2-cyano-7-(4-cyanophenyl)isoindolin-5-yl)methyl)tetrahydro-2H-thiopyran-4-carboxamide 1,1-dioxide]: the IC50 is 1 to 10 µM.

Consider `COc1cccc(OC2CCN(c3ncnc4c3CN(C#N)C4)CC2)c1` [Example 102, 4-(4-(3-methoxyphenoxy)piperidin-1-yl)-5,7-dihydro-6H-pyrrolo[3,4-d]pyrimidine-6-carbonitrile], for which the IC50 is 1 to 10 µM.

With `Cn1cc(-c2nnc(-c3ccccc3)c3c2CN(C#N)C3)cn1` [Example 97, 1-(1-methyl-1H-pyrazol-4-yl)-4-phenyl-5,7-dihydro-6H-pyrrolo[3,4-c]pyridazine-6-carbonitrile], the IC50 lay in the range of 10 to 30 µM.

For the molecule `N#Cc1cc(F)ccc1-c1cc(C(N)=O)cc2c1CN(C#N)C2` [Example 235, 2-cyano-7-(2-cyano-4-fluorophenyl)isoindoline-5-carboxamide], the IC50 lay within 1 to 10 µM.

For the molecule `CC(=O)Nc1cc(-c2ccc(F)cc2)c2c(n1)CN(C#N)C2` [Example 249, N-(6-cyano-4-(4-fluorophenyl)-6,7-dihydro-5H-pyrrolo[3,4-b]pyridin-2-yl)acetamide], the concentration for half-maximal inhibition (IC50) lay within 1 to 10 µM.

As to `CN(C)c1cc2c(c(-c3ccc(C#N)cc3C(N)=O)c1)CN(C#N)C2` [Example 285, 5-Cyano-2-(2-cyano-6-(dimethylamino)isoindolin-4-yl)benzamide], the IC50 was 1 to 10 µM.

Take `CC(=O)Nc1nc2c(c(-c3ccc(F)cc3)n1)CN(C#N)C2` [Example 187, N-(6-cyano-4-(4-fluorophenyl)-6,7-dihydro-5H-pyrrolo[3,4-c]pyrimidin-2-yl)acetamide]: the IC50 was in the range of 1 to 10 µM.
